Experimental data as given in patent US8933132B2, “Tricyclic substituted benzenesulfonamide piperazine derivatives as CAV2.2 calcium channel blockers” (Convergence Pharmaceuticals Limited, priority 2011, dated 2015).

Each molecule was assayed against T1, hCav2.2 (Homo sapiens, UniProt Q00975) (assay: hCav2.2 assay (IonWorks planar array electrophysiology, stable HEK293 cell line)). Conditions: inhibition of current elicited by the 1st depolarising pulse by 50%; HEK293 cells expressing human Cav2.2 α1B/β3/α2δ1; read-out: tonic pIC50 (converted).
T1 construct: expressed in transfected cells; plasmids pCIN5-hCav2.2, pCIH-hCav β3, pCIP-α2δ1
T1 sequence (Q00975 whole entry): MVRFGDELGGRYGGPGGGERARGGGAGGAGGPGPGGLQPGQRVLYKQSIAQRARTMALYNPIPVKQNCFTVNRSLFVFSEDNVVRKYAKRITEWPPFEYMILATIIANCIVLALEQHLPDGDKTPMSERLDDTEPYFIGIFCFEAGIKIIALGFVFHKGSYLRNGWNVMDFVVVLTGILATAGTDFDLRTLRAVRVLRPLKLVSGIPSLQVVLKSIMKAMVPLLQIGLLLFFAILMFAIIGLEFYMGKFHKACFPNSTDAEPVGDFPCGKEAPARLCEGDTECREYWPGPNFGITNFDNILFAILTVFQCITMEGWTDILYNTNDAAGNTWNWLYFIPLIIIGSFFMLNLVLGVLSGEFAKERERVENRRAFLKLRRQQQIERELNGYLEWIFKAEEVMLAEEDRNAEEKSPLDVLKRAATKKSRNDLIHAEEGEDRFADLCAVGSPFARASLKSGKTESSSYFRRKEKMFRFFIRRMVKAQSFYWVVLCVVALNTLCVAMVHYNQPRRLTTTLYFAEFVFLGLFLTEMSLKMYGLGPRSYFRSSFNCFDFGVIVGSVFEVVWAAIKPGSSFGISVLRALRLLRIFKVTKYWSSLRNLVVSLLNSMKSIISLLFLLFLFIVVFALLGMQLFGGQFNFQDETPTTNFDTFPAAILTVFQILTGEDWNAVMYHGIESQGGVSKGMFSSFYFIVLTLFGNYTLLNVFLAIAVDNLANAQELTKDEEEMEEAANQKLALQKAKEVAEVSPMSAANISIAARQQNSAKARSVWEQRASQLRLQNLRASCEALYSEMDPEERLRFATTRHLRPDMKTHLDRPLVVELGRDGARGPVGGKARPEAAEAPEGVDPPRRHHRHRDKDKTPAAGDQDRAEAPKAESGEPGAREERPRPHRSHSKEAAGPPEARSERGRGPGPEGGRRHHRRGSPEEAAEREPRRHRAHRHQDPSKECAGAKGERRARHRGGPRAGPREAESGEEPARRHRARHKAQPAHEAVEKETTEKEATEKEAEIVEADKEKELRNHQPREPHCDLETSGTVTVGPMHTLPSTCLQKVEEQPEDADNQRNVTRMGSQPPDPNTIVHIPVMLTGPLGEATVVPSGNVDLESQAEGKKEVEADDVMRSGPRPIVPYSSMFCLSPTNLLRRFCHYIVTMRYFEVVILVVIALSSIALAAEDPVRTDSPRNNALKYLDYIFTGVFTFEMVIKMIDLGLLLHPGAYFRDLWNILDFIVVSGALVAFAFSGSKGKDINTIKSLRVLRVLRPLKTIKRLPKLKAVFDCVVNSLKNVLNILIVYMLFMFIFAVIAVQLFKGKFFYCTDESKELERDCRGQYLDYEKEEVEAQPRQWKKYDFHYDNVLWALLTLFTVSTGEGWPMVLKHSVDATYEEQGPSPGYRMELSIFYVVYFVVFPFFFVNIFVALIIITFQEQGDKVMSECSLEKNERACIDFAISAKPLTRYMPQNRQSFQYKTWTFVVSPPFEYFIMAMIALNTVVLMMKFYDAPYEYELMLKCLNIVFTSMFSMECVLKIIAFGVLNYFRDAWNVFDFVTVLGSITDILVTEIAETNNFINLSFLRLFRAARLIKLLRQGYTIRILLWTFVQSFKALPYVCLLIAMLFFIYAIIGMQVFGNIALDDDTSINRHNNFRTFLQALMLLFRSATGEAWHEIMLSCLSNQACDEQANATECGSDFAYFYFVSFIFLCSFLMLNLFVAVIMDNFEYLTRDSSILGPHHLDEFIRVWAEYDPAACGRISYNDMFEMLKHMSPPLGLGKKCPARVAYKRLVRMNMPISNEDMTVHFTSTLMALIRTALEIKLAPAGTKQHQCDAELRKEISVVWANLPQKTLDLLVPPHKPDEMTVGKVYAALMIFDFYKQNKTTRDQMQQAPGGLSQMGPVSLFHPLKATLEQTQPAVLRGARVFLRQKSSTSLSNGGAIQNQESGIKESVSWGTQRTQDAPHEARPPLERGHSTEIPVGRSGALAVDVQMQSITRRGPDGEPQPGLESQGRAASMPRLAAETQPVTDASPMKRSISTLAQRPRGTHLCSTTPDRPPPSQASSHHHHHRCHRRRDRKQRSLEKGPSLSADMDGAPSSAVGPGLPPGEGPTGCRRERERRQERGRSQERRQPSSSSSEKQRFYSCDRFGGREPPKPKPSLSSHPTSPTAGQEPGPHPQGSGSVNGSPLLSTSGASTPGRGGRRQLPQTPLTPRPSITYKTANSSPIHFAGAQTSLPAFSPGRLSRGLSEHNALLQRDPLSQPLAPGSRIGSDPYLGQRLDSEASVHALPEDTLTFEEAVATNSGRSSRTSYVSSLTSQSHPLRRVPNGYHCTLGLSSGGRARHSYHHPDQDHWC
Assay type: cell-based
Method: Compounds as defined in the first to third aspects may be tested for in vitro biological activity in the hCav2.2 assay in accordance with the following studies:
Stable cell lines expressing the human Cav2.2 α (α1B) subunit, along with the human β3 and α2δ1 auxiliary subunits were created following sequential transfection and selection of human embryonic kidney (HEK293) cells. HEK293 cells were cultured in Dulbecco's modified Eagles media/F12 media (Invitrogen, Cat #041-95750V) containing 10% fetal bovine serum, with added L-glutamine (2 mM; Invitrogen, Cat #25030-024) and non-essential amino acids (5%; Invitrogen, Cat #11140-035). Initially HEK293 cells were transfected with two plasmid vectors for expression of the hCav2.2 α subunit (pCIN5-hCav2.2 which carries a neomycin resistance marker) and the hCav β3 subunit (pCIH-hCav β3 which carries a hygromycin resistance marker). Clonal cell lines were isolated following selection in media supplemented with 0.4 mg ml^−1 Geneticin G418 (Invitrogen, Cat #10131-027) and 0.1 mg ml^−1 hygromycin (Invitrogen, Cat #10687-010). These clonal cell lines were assessed for Cav2.2 α/β3-mediated current expression using the IonWorks planar array electrophysiology technology (described below). A clonal line was identified that gave a reasonable level of functional Cav2.2 α/β3 current expression. This cell line was transfected with a plasmid vector for expression of the human α2δ1 subunit (pCIP-α2δ1 which carries a puromycin resistance marker) and clonal cell lines isolated following selection in media containing 0.62 μg ml^−1 puromycin (Sigma, Cat # P-7255), in addition to 0.4 mg ml^−1 Geneticin G418 and 0.1 mg ml^−1 hygromycin. […]
Currents were recorded at room temperature (21-23° C.) using the IonWorks planar array electrophysiology technology (Molecular Devices Corp.). […] In all experiments, the test pulse protocol was performed in the absence (pre-read) and presence (post-read) of a compound. Pre- and post-reads were separated by a compound addition followed by a 3-3.5 min incubation. […]
Cc1cc(C(F)(F)F)ccc1S(=O)(=O)N1CCN2C(=O)c3cccnc3C2C1 (single isomer, unassigned) [24/25 (slower running enantiomer)] was tested, and the IC50 was no more than 31.6 µM.
Work on Cc1ccc2c(n1)C1CN(S(=O)(=O)c3ccc(OC(C)C)cc3)CCN1C2=O (stereo not drawn) [Compound 2, 2-Methyl-9-({4-[(1-methylethyl)oxy]phenyl}sulfonyl)-8,9,10,10a-tetrahydropyrido[2′,3′:3,4]pyrrolo-[1,2-a]pyrazin-5(7H)-one] yielded an IC50 of 100 µM.
Cc1ccc2c(n1)C1CN(S(=O)(=O)c3ccc(C(F)(F)F)cc3C)CCN1C2=O (stereo not drawn) [Compound 18, 2-Methyl-9-{[2-methyl-4-(trifluoromethyl)phenyl]sulfonyl}-8,9,10,10a-tetrahydropyrido[2′,3′:3,4]pyrrolo-[1,2-a]pyrazin-5(7H)-one] was tested, and the IC50 was no more than 31.6 µM.
